Reference: patent publication US7816408B2, “Calcium receptor active compounds” (NPS Pharmaceuticals, Inc., priority 2002, dated 2010)

What was measured:
human calcium receptor = biological target: T1, human calcium receptor (Homo sapiens, UniProt P41180); assay: Activity on calcium receptors: fluo-3 fluorescence in HEK293 cells transfected with human calcium receptor gene; type: cell-based; conditions: HEK293 cells transfected with plasmid pHuPCaR4.0 (human calcium receptor gene), loaded with fluo-3; 1 mM CaCl2, 1 mM MgCl2
T1 construct: expressed in transfected cells; host or cells: HEK293
T1 sequence (P41180 20-1078): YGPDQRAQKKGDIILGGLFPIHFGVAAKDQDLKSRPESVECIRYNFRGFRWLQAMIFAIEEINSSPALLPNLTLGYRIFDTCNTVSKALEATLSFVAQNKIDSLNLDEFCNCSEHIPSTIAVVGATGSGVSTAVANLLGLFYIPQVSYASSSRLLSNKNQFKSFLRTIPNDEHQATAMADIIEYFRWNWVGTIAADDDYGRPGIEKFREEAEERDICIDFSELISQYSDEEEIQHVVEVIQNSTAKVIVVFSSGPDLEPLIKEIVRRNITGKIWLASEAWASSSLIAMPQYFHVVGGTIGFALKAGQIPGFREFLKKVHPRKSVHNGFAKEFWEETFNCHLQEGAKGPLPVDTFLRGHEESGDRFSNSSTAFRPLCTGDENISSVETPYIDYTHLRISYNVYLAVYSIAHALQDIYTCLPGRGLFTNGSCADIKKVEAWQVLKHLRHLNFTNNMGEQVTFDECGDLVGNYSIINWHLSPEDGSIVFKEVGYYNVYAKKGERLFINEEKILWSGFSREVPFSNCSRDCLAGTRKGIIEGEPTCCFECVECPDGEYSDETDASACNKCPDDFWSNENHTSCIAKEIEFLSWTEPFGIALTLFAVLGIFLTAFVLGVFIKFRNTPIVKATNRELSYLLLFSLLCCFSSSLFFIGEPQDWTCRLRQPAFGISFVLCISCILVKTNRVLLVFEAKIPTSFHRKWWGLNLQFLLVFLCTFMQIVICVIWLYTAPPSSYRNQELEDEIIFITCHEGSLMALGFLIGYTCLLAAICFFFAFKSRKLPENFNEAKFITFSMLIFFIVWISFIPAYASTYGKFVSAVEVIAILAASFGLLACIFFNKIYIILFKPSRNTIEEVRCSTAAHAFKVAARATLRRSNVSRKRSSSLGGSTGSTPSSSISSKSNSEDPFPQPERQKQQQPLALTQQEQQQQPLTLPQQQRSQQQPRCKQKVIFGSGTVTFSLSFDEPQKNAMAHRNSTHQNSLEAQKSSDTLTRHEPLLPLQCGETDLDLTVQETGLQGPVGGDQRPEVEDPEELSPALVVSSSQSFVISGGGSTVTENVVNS
How it was run: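 HEK293 cells transfected with human calcium receptor plasmid, loaded 1 h at 37 °C with about 5 μM fluo-3/AM. Cells then rinsed into HEPES-buffered HBSS with 1 mM CaCl2 and 1 mM MgCl2. Fluorescence read at 485/540 nm after compound addition.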

normal male SD rats = assay: Plasma Ca^2+ level of rats after single oral administration; type: in vivo; conditions: rat, mean of six animals; for Plasma Ca^2+ (mmol/l) 1 hr: 1 hr after single oral dose 30 μmol/kg; for Plasma Ca^2+ (mmol/l) 1 hr / Plasma Ca^2+ (mmol/l) 2 hr / Plasma Ca^2+ (mmol/l) 4 hr / Plasma Ca^2+ (mmol/l) 8 hr / Plasma Ca^2+ (mmol/l) 0 hr / Plasma Ca^2+ (mmol/l) 24 hr: vehicle 10% cyclodextrin (** 1% sodium-CMC); for Plasma Ca^2+ (mmol/l) 2 hr: 2 hr after single oral dose 30 μmol/kg; for Plasma Ca^2+ (mmol/l) 4 hr: 4 hr after single oral dose 30 μmol/kg; for Plasma Ca^2+ (mmol/l) 8 hr: 8 hr after single oral dose 30 μmol/kg; for Plasma Ca^2+ (mmol/l) 28 hr (footnote *d, 24 hr column): 28 hr after single oral dose 30 μmol/kg; for Plasma Ca^2+ (mmol/l) 28 hr (footnote *d, 24 hr column) / Plasma Ca^2+ (mmol/l) 48 hr: vehicle 10% cyclodextrin; for Plasma Ca^2+ (mmol/l) 0 hr: 0 hr = before oral administration of 30 μmol/kg; for Plasma Ca^2+ (mmol/l) 24 hr: 24 hr after single oral dose 30 μmol/kg; for Plasma Ca^2+ (mmol/l) 48 hr: 48 hr after single oral dose 30 μmol/kg
How it was run: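 Normal male SD rats (n=6/group) received a single oral dose of 30 μmol/kg in 10% cyclodextrin or, for some compounds, 1% sodium-CMC; vehicle controls received 2.5 ml/kg. Tail blood was drawn pre-dose and at 30 min and 1, 2, 4, 8 and 24 h for plasma Ca^2+ and serum PTH. PTH was compared with vehicle by Steel's test.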

## C[C@@H](NCCCCSc1ccc(F)cc1)c1cccc2ccccc12 [Compound K-2263, N-{4-[(4-fluorophenyl)thio]butyl}-N-[(1R)-1-(1-naphthyl)ethyl]amine]
Human calcium receptor
  EC50: 110 nM
Normal male SD rats
  Plasma Ca^2+ (mmol/l) 1 hr: 1.273 mmol/L
  Plasma Ca^2+ (mmol/l) 2 hr: 1.237 mmol/L
  Plasma Ca^2+ (mmol/l) 4 hr: 1.212 mmol/L
  Plasma Ca^2+ (mmol/l) 8 hr: 1.308 mmol/L

## Cc1ccc(CN(Cc2ccc(OC(F)(F)F)cc2)C(=O)CCN[C@H](C)c2cccc3ccccc23)cc1 [Compound K-2310, N1-(4-methylbenzyl)-N1-[4-(trifluoromethoxy)benzyl]-3-{[(1R)-1-(1-naphthyl)ethyl]amino}propanamide]
Human calcium receptor
  EC50: 59 nM
Normal male SD rats
  Plasma Ca^2+ (mmol/l) 1 hr: 1.342 mmol/L
  Plasma Ca^2+ (mmol/l) 2 hr: 1.188 mmol/L
  Plasma Ca^2+ (mmol/l) 4 hr: 1.008 mmol/L
  Plasma Ca^2+ (mmol/l) 8 hr: 0.943 mmol/L
  Plasma Ca^2+ (mmol/l) 28 hr (footnote *d, 24 hr column): 1.330*^d mmol/l

## C[C@@H](NCCCCSc1ccc(Cl)cc1)c1cccc2ccccc12 [Compound K-2293, N-{4-[(4-chlorophenyl)thio]butyl}-N-[(1R)-1-(1-naphthyl)ethyl]amine]
Human calcium receptor
  EC50: 280 nM
Normal male SD rats
  Plasma Ca^2+ (mmol/l) 1 hr: 1.245 mmol/L
  Plasma Ca^2+ (mmol/l) 2 hr: 1.152 mmol/L
  Plasma Ca^2+ (mmol/l) 4 hr: 1.068 mmol/L
  Plasma Ca^2+ (mmol/l) 8 hr: 1.088 mmol/L

## C[C@@H](NCCCCCSc1cc(Cl)ccc1Cl)c1cccc2ccccc12 [Compound K-2296, N-{[5-(2,5-dichlorophenyl)thio]pentyl}N-[(1R)-1-(1-naphthyl)ethyl]amine]
Human calcium receptor
  EC50: 220 nM
Normal male SD rats
  Plasma Ca^2+ (mmol/l) 0 hr: 1.410 mmol/L
  Plasma Ca^2+ (mmol/l) 1 hr: 1.340 mmol/L
  Plasma Ca^2+ (mmol/l) 2 hr: 1.195 mmol/L
  Plasma Ca^2+ (mmol/l) 4 hr: 1.113 mmol/L
  Plasma Ca^2+ (mmol/l) 8 hr: 1.083 mmol/L

## C[C@@H](NCCC(=O)N(Cc1ccc(C(F)(F)F)cc1)Cc1ccc(Cl)c(Cl)c1)c1cccc2ccccc12 [Compound K-2264, N1-(3,4-dichlorobenzyl)-N1-[(4-trifluoromethyl)benzyl]-3-{[(1R)-1-(1-naphthyl)ethyl]-amino}propanamide]
Human calcium receptor
  EC50: 16 nM
Normal male SD rats
  Plasma Ca^2+ (mmol/l) 1 hr: 1.335 mmol/L
  Plasma Ca^2+ (mmol/l) 2 hr: 1.203 mmol/L
  Plasma Ca^2+ (mmol/l) 4 hr: 1.013 mmol/L
  Plasma Ca^2+ (mmol/l) 8 hr: 0.998 mmol/L
  Plasma Ca^2+ (mmol/l) 24 hr: 1.182 mmol/L
Normal male SD rats; 31 hr after single oral dose 30 μmol/kg, 1% sodium-CMC
  Plasma Ca^2+ (mmol/l) 31 hr (footnote *a, 48 hr column): 1.240*^a mmol/l

## Cc1ccc(SCCCCN[C@H](C)c2cccc3ccccc23)cc1 [Compound K-2304, N-{4-[(4-methylphenyl)thio]butyl}-N-[(1R)-1-(1-naphthyl)ethyl]amine]
Human calcium receptor
  EC50: 98 nM
Normal male SD rats
  Plasma Ca^2+ (mmol/l) 1 hr: 1.262 mmol/L
  Plasma Ca^2+ (mmol/l) 2 hr: 1.157 mmol/L
  Plasma Ca^2+ (mmol/l) 4 hr: 1.053 mmol/L
  Plasma Ca^2+ (mmol/l) 8 hr: 1.065 mmol/L

## COc1ccc(CN(Cc2ccc(OC)cc2)C(=O)CCN[C@H](C)c2cccc3ccccc23)cc1 [Compound K-2270, N1,N1-di(4-methoxybenzyl)-3-{[(1R)-1-(1-naphthyl)ethyl]amino}propanamide]
Human calcium receptor
  EC50: 140 nM
Normal male SD rats
  Plasma Ca^2+ (mmol/l) 1 hr: 1.355 mmol/L
  Plasma Ca^2+ (mmol/l) 2 hr: 1.238 mmol/L
  Plasma Ca^2+ (mmol/l) 4 hr: 1.088 mmol/L
  Plasma Ca^2+ (mmol/l) 8 hr: 1.175 mmol/L

## Cc1ccc(SCCCCN[C@H](C)c2cccc3ccccc23)c(C)c1 [Compound K-2302, N-{4-[(2,4-dimethylphenyl)thio]butyl}-N-[(1R)-1-(1-naphthyl)ethyl]amine]
Human calcium receptor
  EC50: 500 nM
Normal male SD rats
  Plasma Ca^2+ (mmol/l) 1 hr: 1.238 mmol/L
  Plasma Ca^2+ (mmol/l) 2 hr: 1.130 mmol/L
  Plasma Ca^2+ (mmol/l) 4 hr: 0.978 mmol/L
  Plasma Ca^2+ (mmol/l) 8 hr: 1.010 mmol/L

## C[C@@H](NCCC(=O)N(Cc1ccc(Cl)cc1)Cc1ccc2ccccc2c1)c1cccc2ccccc12 [Compound K-2291, N1-(4-chlorobenzyl)-N1-(2-naphthylmethyl)-3-{[(1R)-1-(1-naphthyl)ethyl]amino}propanamide]
Human calcium receptor
  EC50: 81 nM
Normal male SD rats
  Plasma Ca^2+ (mmol/l) 1 hr: 1.298 mmol/L
  Plasma Ca^2+ (mmol/l) 2 hr: 1.247 mmol/L
  Plasma Ca^2+ (mmol/l) 4 hr: 1.130 mmol/L
  Plasma Ca^2+ (mmol/l) 8 hr: 1.132 mmol/L

## COc1ccc(CN(Cc2ccc(Cl)c(Cl)c2)C(=O)CCN[C@H](C)c2cccc3ccccc23)cc1 [Compound K-2309, N1-(3,4-dichlorobenzyl)-N1-(4-methoxybenzyl)-3-{[(1R)-1-(1-naphthyl)ethyl]amino}propanamide]
Human calcium receptor
  EC50: 66 nM
Normal male SD rats
  Plasma Ca^2+ (mmol/l) 1 hr: 1.320 mmol/L
  Plasma Ca^2+ (mmol/l) 2 hr: 1.207 mmol/L
  Plasma Ca^2+ (mmol/l) 4 hr: 1.018 mmol/L
  Plasma Ca^2+ (mmol/l) 8 hr: 0.963 mmol/L
  Plasma Ca^2+ (mmol/l) 28 hr (footnote *d, 24 hr column): 1.332*^d mmol/l

## C[C@@H](NCCC(=O)N(Cc1ccc(Cl)cc1)Cc1ccccc1Cl)c1cccc2ccccc12 [Compound K-2262, N1-(2-chlorobenzyl)-N1-(4-chlorobenzyl)-3-{[(1R)-1-(1-naphthyl)ethyl]amino}propanamide]
Human calcium receptor
  EC50: 84 nM
Normal male SD rats
  Plasma Ca^2+ (mmol/l) 1 hr: 1.390 mmol/L
  Plasma Ca^2+ (mmol/l) 2 hr: 1.260 mmol/L
  Plasma Ca^2+ (mmol/l) 4 hr: 1.138 mmol/L
  Plasma Ca^2+ (mmol/l) 8 hr: 1.142 mmol/L

## C[C@@H](NCCCCCSc1ccc(OC(F)(F)F)cc1)c1cccc2ccccc12 [Compound K-2288, N-[(1R)-1-(1-naphthyl)ethyl]-N-(5-{[4-(trifluoromethoxy)phenyl)thio]pentyl)amine]
Human calcium receptor
  EC50: 140 nM
Normal male SD rats
  Plasma Ca^2+ (mmol/l) 1 hr: 1.190 mmol/L
  Plasma Ca^2+ (mmol/l) 2 hr: 1.057 mmol/L
  Plasma Ca^2+ (mmol/l) 4 hr: 0.955 mmol/L
  Plasma Ca^2+ (mmol/l) 8 hr: 0.905 mmol/L
  Plasma Ca^2+ (mmol/l) 24 hr: 1.162 mmol/L
  Plasma Ca^2+ (mmol/l) 48 hr: 1.387 mmol/L

## C[C@@H](NCCCCCCSc1ccc(Cl)cc1)c1cccc2ccccc12 [Compound K-2286, N-{6-[(4-chlorophenyl)thio]hexyl}-N-[(1R)-1-(1-naphthyl)ethyl]amine]
Human calcium receptor
  EC50: 620 nM
Normal male SD rats
  Plasma Ca^2+ (mmol/l) 1 hr: 1.318 mmol/L
  Plasma Ca^2+ (mmol/l) 2 hr: 1.218 mmol/L
  Plasma Ca^2+ (mmol/l) 4 hr: 1.088 mmol/L
  Plasma Ca^2+ (mmol/l) 8 hr: 1.098 mmol/L
  Plasma Ca^2+ (mmol/l) 24 hr: 1.390 mmol/L
  Plasma Ca^2+ (mmol/l) 48 hr: 1.412 mmol/L

## COc1ccc(CN(Cc2ccc(OC(F)(F)F)cc2)C(=O)CCN[C@H](C)c2cccc3ccccc23)cc1 [Compound K-2311]
Human calcium receptor
  EC50: 53 nM
Normal male SD rats
  Plasma Ca^2+ (mmol/l) 0 hr: 1.447 mmol/L
  Plasma Ca^2+ (mmol/l) 1 hr: 1.375 mmol/L
  Plasma Ca^2+ (mmol/l) 2 hr: 1.232 mmol/L
  Plasma Ca^2+ (mmol/l) 4 hr: 1.075 mmol/L
  Plasma Ca^2+ (mmol/l) 8 hr: 1.110 mmol/L

## C[C@@H](NCCC(=O)N(Cc1ccc(Cl)c(Cl)c1)Cc1ccc(Cl)c(Cl)c1)c1cccc2ccccc12 [Compound K-2265, N1,N1-di(3,4-dichlorobenzyl)-3-{[(1R)-1-(1-naphthyl)ethyl]amino}propanamide]
Human calcium receptor
  EC50: 61 nM
Normal male SD rats
  Plasma Ca^2+ (mmol/l) 1 hr: 1.430 mmol/L
  Plasma Ca^2+ (mmol/l) 2 hr: 1.363 mmol/L
  Plasma Ca^2+ (mmol/l) 4 hr: 1.260 mmol/L
  Plasma Ca^2+ (mmol/l) 8 hr: 1.218 mmol/L

## C[C@@H](NCCC(=O)N(Cc1ccc(Cl)cc1)Cc1ccc(Cl)c(Cl)c1)c1cccc2ccccc12 [Compound K-2267, N1-(4-chlorobenzyl)-N1-(3,4-dichlorobenzyl)-3-{[(1R)-1-(1-naphthyl)ethyl]amino}propanamide]
Human calcium receptor
  EC50: 14 nM
Normal male SD rats
  Plasma Ca^2+ (mmol/l) 1 hr: 1.347 mmol/L
  Plasma Ca^2+ (mmol/l) 2 hr: 1.212 mmol/L
  Plasma Ca^2+ (mmol/l) 4 hr: 1.027 mmol/L
  Plasma Ca^2+ (mmol/l) 8 hr: 1.022 mmol/L
  Plasma Ca^2+ (mmol/l) 24 hr: 1.312 mmol/L
